Test results published in US8946270B2, “Amido-pyridyl ether compounds and compositions and their use against parasites” (Merial Limited, priority 2011, dated 2015).
Like-named read-outs stand apart in the source and are kept apart here.

Experiments:
Stomoxys calcitrans = experiment: whole plant or invertebrate; conditions: 5 μg/cm^2; for mortality at 5 µg/cm2: Stomoxys calcitrans, read-out: Contact SP Stable Fly PCT Mortality
Experimental: (§1) A solution of the test compound was used to treat a filter paper contained within a Petri dish and the filter paper was allowed to evaporate to dryness. A small piece of absorbent cotton moistened with 10% sucrose and ten adult flies (Haematobia irritans or Stomoxys calcitrans) were added to each dish. Dishes were capped and held at room temperature. Assessments were performed at 4 and 24 hours after infestation in comparison with untreated controls.

Haematobia irritans = experiment: whole plant or invertebrate; conditions: 5 μg/cm^2; for mortality at 5 µg/cm2: Haematobia irritans, read-out: Contact SP Horn Fly PCT Mortality (%)
Experimental: as §1

[1] = tested on: Rhipicephalus sanguineus (Brown Dog Tick); experiment: whole plant or invertebrate; conditions: for mortality at 200 ppm: Rhipicephalus sanguineus, read-out: Contact SP Rhicicep PCT Mortality (%); for Contact SP Rhicicep PCT Mortality (%): 200 ppm
Description: A solution of the test compound was used to coat the inner wall of glass vials and to treat two filter papers. Once dried, one filter paper was placed in the cap of the vial and the other in the bottom of the vial. Each treated vial was infested with 10 adult Rhipicephalus sanguineus (Brown Dog Tick). […]

[2] = tested on: Haemonchus contortus larvae; experiment: Activity against H. contortus, larval development L1 to L3 (LDA); conditions: 5 ppm; 4 days
Experimental: Twenty L1 Haemonchus contortus larvae were added to wells of a microtitre plate containing a nutrient medium and the test compound in DMSO. The microtitre plate was then held at 27° C. where the L1 larvae were allowed to develop. […] Larvae exposed to DMSO and no test compound served as controls

[3] = tested on: microfilaria of Dirofilaria immitis; experiment: Activity against D. immitis microfilaria (Mf); conditions: 5 ppm; 5 days
Experimental: Four hundred to six hundred microfilaria of Dirofilaria immitis were added to wells of a microtitre plate containing RPMI media and the test compound in DMSO. The microtitre plate was then held at 37° C. in an environment containing 5% CO2. An assessment was conducted at 5 days to determine survival of the microfilaria. Microfilaria exposed to DMSO and no test compound served as controls.

Ctenocephalides felis = experiment: whole plant or invertebrate; conditions: 72 hr; for mortality at 200 ppm: Ctenocephalides felis, read-out: Assay: Minilnge Organism: C. felis Test Parameter: PCT Mortal; for Assay: Minilnge Organism: C. felis Test Parameter: PCT Mortal: Dose: 200 ppm

Compound: CC(C)CNC(=O)c1ccc(COc2cccc(C(F)(F)F)c2)cn1 [Compound 5]
- mortality at 5 µg/cm2 (Stomoxys calcitrans; 4 hrs): 70%
- mortality at 5 µg/cm2 (Stomoxys calcitrans; 24 hrs): 90%
- mortality at 5 µg/cm2 (Haematobia irritans; timepoint 4 hrs): 100%
- mortality at 5 µg/cm2 (Haematobia irritans; timepoint 24 hrs): 100%
- mortality at 200 ppm ([1]; timepoint 4 hrs): 50%
- mortality at 200 ppm ([1]; timepoint 24 hrs): 80%

Compound: CC(C)CNC(=O)c1ccc(CCOc2cccc(OC(F)(F)F)c2)cn1 [Compound 12]
- mortality at 5 µg/cm2 (Stomoxys calcitrans; 4 hrs): 50%
- mortality at 5 µg/cm2 (Stomoxys calcitrans; 24 hrs): 90%
- mortality at 5 µg/cm2 (Haematobia irritans; timepoint 4 hrs): 80%
- mortality at 5 µg/cm2 (Haematobia irritans; timepoint 24 hrs): 100%

Compound: CC(C)CNC(=O)c1ccc(CCOc2ccc(OC(F)(F)F)cc2)cn1 [Compound 13]
- mortality at 5 µg/cm2 (Haematobia irritans; timepoint 4 hrs): 60%
- mortality at 5 µg/cm2 (Haematobia irritans; timepoint 24 hrs): 70%
- LDA SP H. cont. PCT Mot M [2]: 95%

Compound: O=C(NCC1CCOCC1)c1ccc(CCOc2ccc(OC(F)(F)F)cc2)cn1 [Compound 14]
- mortality at 5 µg/cm2 (Haematobia irritans; timepoint 4 hrs): 80%
- mortality at 5 µg/cm2 (Haematobia irritans; timepoint 24 hrs): 100%
- Mf sp D. immitis PCT Motili [3]: 88%
- LDA SP H. cont. PCT Mot M [2]: 100%

Compound: O=C(NCC1CCOCC1)c1ccc(COc2ccc(OC(F)(F)F)cc2)cn1 [Compound 24]
- mortality at 5 µg/cm2 (Haematobia irritans; timepoint 4 hrs): 50%
- mortality at 5 µg/cm2 (Haematobia irritans; timepoint 24 hrs): 70%
- mortality at 200 ppm ([1]; timepoint 4 hrs): 0%
- mortality at 200 ppm ([1]; timepoint 24 hrs): 0%
- mortality at 200 ppm (Ctenocephalides felis): 0%

Compound: O=C(NCC1CC1)c1ccc(COc2ccc(OC(F)(F)F)cc2)cn1 [Compound 33]
- mortality at 5 µg/cm2 (Stomoxys calcitrans; 4 hrs): 80%
- mortality at 5 µg/cm2 (Stomoxys calcitrans; 24 hrs): 80%
- mortality at 5 µg/cm2 (Haematobia irritans; timepoint 4 hrs): 100%
- mortality at 5 µg/cm2 (Haematobia irritans; timepoint 24 hrs): 100%
- mortality at 200 ppm ([1]; timepoint 4 hrs): 100%
- mortality at 200 ppm ([1]; timepoint 24 hrs): 100%

Compound: COC(CNC(=O)c1ccc(COc2cccc(OC(F)(F)F)c2)cn1)OC [Compound 44]
- mortality at 5 µg/cm2 (Haematobia irritans; timepoint 4 hrs): 80%
- mortality at 5 µg/cm2 (Haematobia irritans; timepoint 24 hrs): 80%
- mortality at 200 ppm ([1]; timepoint 4 hrs): 100%
- mortality at 200 ppm ([1]; timepoint 24 hrs): 100%

Compound: O=C(NCC1CC1)c1ccc(COc2cccc(OC(F)(F)F)c2)cn1 [Compound 52]
- Contact SP Stable Fly PCT Mortality (Stomoxys calcitrans; 4 hrs): 60%
- Contact SP Stable Fly PCT Mortality (Stomoxys calcitrans; 24 hrs): 80%
- Contact SP Horn Fly PCT Mortality (%) (Haematobia irritans; timepoint 4 hrs): 80%
- Contact SP Horn Fly PCT Mortality (%) (Haematobia irritans; timepoint 24 hrs): 80%

Compound: CC(C)CNC(=O)c1ccc(COc2cccc(OC(F)(F)F)c2)cn1 [Compound 54]
- mortality at 5 µg/cm2 (Haematobia irritans; timepoint 4 hrs): 100%
- mortality at 5 µg/cm2 (Haematobia irritans; timepoint 24 hrs): 100%
- mortality at 200 ppm ([1]; timepoint 4 hrs): 0%
- mortality at 200 ppm ([1]; timepoint 24 hrs): 100%

Compound: Cc1cccc(OCc2ccc(C(=O)NCC(C)C)nc2)c1 [Compound 63]
- Contact SP Stable Fly PCT Mortality (Stomoxys calcitrans; 4 hrs): 80%
- Contact SP Stable Fly PCT Mortality (Stomoxys calcitrans; 24 hrs): 80%
- Contact SP Horn Fly PCT Mortality (%) (Haematobia irritans; timepoint 4 hrs): 100%
- Contact SP Horn Fly PCT Mortality (%) (Haematobia irritans; timepoint 24 hrs): 100%
- Contact SP Rhicicep PCT Mortality (%) ([1]; timepoint 4 hrs): 100%
- Contact SP Rhicicep PCT Mortality (%) ([1]; timepoint 24 hrs): 100%

Compound: CCc1cccc(OCc2ccc(C(=O)NCC(OC)OC)nc2)c1 [Compound 65]
- mortality at 5 µg/cm2 (Stomoxys calcitrans; 4 hrs): 50%
- mortality at 5 µg/cm2 (Stomoxys calcitrans; 24 hrs): 60%
- mortality at 200 ppm ([1]; timepoint 4 hrs): 80%
- mortality at 200 ppm ([1]; timepoint 24 hrs): 100%

Compound: C=C(C)CNC(=O)c1ccc(COc2cccc(CC)c2)cn1 [Compound 76]
- mortality at 5 µg/cm2 (Haematobia irritans; timepoint 4 hrs): 0%
- mortality at 5 µg/cm2 (Haematobia irritans; timepoint 24 hrs): 0%
- mortality at 200 ppm ([1]; timepoint 4 hrs): 80%
- mortality at 200 ppm ([1]; timepoint 24 hrs): 100%

Compound: CCc1cccc(OCc2ccc(C(=O)NCC(C)C)nc2)c1 [Compound 77]
- mortality at 5 µg/cm2 (Stomoxys calcitrans; 4 hrs): 60%
- mortality at 5 µg/cm2 (Stomoxys calcitrans; 24 hrs): 80%
- mortality at 5 µg/cm2 (Haematobia irritans; timepoint 4 hrs): 100%
- mortality at 5 µg/cm2 (Haematobia irritans; timepoint 24 hrs): 100%
- mortality at 200 ppm ([1]; timepoint 4 hrs): 100%
- mortality at 200 ppm ([1]; timepoint 24 hrs): 100%

Compound: COC(CNC(=O)c1ccc(COc2cc(F)cc(Br)c2)cn1)OC [Compound 107]
- mortality at 5 µg/cm2 (Haematobia irritans; timepoint 4 hrs): 0%
- mortality at 5 µg/cm2 (Haematobia irritans; timepoint 24 hrs): 0%
- mortality at 200 ppm ([1]; timepoint 4 hrs): 0%
- mortality at 200 ppm ([1]; timepoint 24 hrs): 70%
- mortality at 200 ppm (Ctenocephalides felis): 90%

Compound: N#CCCNC(=O)c1ccc(COc2cc(F)cc(Br)c2)cn1 [Compound 108]
- mortality at 5 µg/cm2 (Stomoxys calcitrans; 4 hrs): 0%
- mortality at 5 µg/cm2 (Stomoxys calcitrans; 24 hrs): 0%
- mortality at 5 µg/cm2 (Haematobia irritans; timepoint 4 hrs): 100%
- mortality at 5 µg/cm2 (Haematobia irritans; timepoint 24 hrs): 100%
- mortality at 200 ppm ([1]; timepoint 4 hrs): 70%
- mortality at 200 ppm ([1]; timepoint 24 hrs): 70%

Compound: O=C(NCC1CC1)c1ccc(COc2cc(F)cc(Br)c2)cn1 [Compound 119]
- Contact SP Stable Fly PCT Mortality (Stomoxys calcitrans; 4 hrs): 60%
- Contact SP Stable Fly PCT Mortality (Stomoxys calcitrans; 24 hrs): 70%
- Contact SP Horn Fly PCT Mortality (%) (Haematobia irritans; timepoint 4 hrs): 80%
- Contact SP Horn Fly PCT Mortality (%) (Haematobia irritans; timepoint 24 hrs): 100%

Compound: O=C(NC1CCC1)c1ccc(COc2cc(F)cc(Br)c2)cn1 [Compound 122]
- Contact SP Horn Fly PCT Mortality (%) (Haematobia irritans; timepoint 4 hrs): 0%
- Contact SP Horn Fly PCT Mortality (%) (Haematobia irritans; timepoint 24 hrs): 0%
- Contact SP Rhicicep PCT Mortality (%) ([1]; timepoint 4 hrs): 0%
- Contact SP Rhicicep PCT Mortality (%) ([1]; timepoint 24 hrs): 80%

Compound: CN(C)CC(C)(C)CNC(=O)c1ccc(COc2cc(F)cc(Br)c2)cn1 [Compound 124]
- mortality at 5 µg/cm2 (Haematobia irritans; timepoint 4 hrs): 100%
- mortality at 5 µg/cm2 (Haematobia irritans; timepoint 24 hrs): 100%
- mortality at 200 ppm ([1]; timepoint 4 hrs): 70%
- mortality at 200 ppm ([1]; timepoint 24 hrs): 70%

Compound: CCCCNC(=O)c1ccc(COc2cc(F)cc(Br)c2)cn1 [Compound 127]
- mortality at 5 µg/cm2 (Haematobia irritans; timepoint 4 hrs): 70%
- mortality at 5 µg/cm2 (Haematobia irritans; timepoint 24 hrs): 70%
- mortality at 200 ppm ([1]; timepoint 4 hrs): 90%
- mortality at 200 ppm ([1]; timepoint 24 hrs): 100%

Compound: CC(C)CNC(=O)c1ccc(OCc2ccc(OC(F)(F)F)cc2)cn1 [Compound 136]
- LDA SP H. cont. PCT Mot M [2]: 89.2655%

Compound: O=C(NCC1CC1)c1ccc(COc2cccc(-c3cccc(F)c3)c2)cn1 [Compound 176]
- Contact SP Rhicicep PCT Mortality (%) ([1]; timepoint 4 hrs): 90%
- Contact SP Rhicicep PCT Mortality (%) ([1]; timepoint 24 hrs): 100%
- Assay: Minilnge Organism: C. felis Test Parameter: PCT Mortal (Ctenocephalides felis): 70%

Compound: CCCNC(=O)c1ccc(COc2cccc(-c3cccc(F)c3)c2)cn1 [Compound 177]
- Contact SP Rhicicep PCT Mortality (%) ([1]; timepoint 4 hrs): 80%
- Contact SP Rhicicep PCT Mortality (%) ([1]; timepoint 24 hrs): 90%
- Assay: Minilnge Organism: C. felis Test Parameter: PCT Mortal (Ctenocephalides felis): 40%

Compound: C=C(C)CNC(=O)c1ccc(COc2cccc(-c3cccc(F)c3)c2)cn1 [Compound 179]
- Contact SP Rhicicep PCT Mortality (%) ([1]; timepoint 4 hrs): 100%
- Contact SP Rhicicep PCT Mortality (%) ([1]; timepoint 24 hrs): 100%
- Assay: Minilnge Organism: C. felis Test Parameter: PCT Mortal (Ctenocephalides felis): 70%

Compound: COC(CNC(=O)c1ccc(COc2cccc(-c3ccccc3)c2)cn1)OC [Compound 185]
- Assay: Minilnge Organism: C. felis Test Parameter: PCT Mortal (Ctenocephalides felis): 90%

Compound: C=C(C)CNC(=O)c1ccc(COc2cccc(-c3ccccc3)c2)cn1 [Compound 197]
- Assay: Minilnge Organism: C. felis Test Parameter: PCT Mortal (Ctenocephalides felis): 90%

Compound: CC(C)CNC(=O)c1ccc(COc2cccc(-c3ccccc3)c2)cn1 [Compound 198]
- Contact SP Rhicicep PCT Mortality (%) ([1]; timepoint 4 hrs): 100%
- Contact SP Rhicicep PCT Mortality (%) ([1]; timepoint 24 hrs): 100%
- Assay: Minilnge Organism: C. felis Test Parameter: PCT Mortal (Ctenocephalides felis): 90%

Compound: CC(C)CNC(=O)c1ccc(CCOc2ccc(C(F)(F)F)cc2)cn1 [Compound 206]
- mortality at 200 ppm ([1]; timepoint 4 hrs): 100%
- mortality at 200 ppm ([1]; timepoint 24 hrs): 100%
- LDA SP H. cont. PCT Mot M [2]: 100%

Compound: O=C(NCC1CC1)c1ccc(CCOc2ccc(C(F)(F)F)cc2)cn1 [Compound 207]
- Contact SP Horn Fly PCT Mortality (%) (Haematobia irritans; timepoint 4 hrs): 80%
- Contact SP Horn Fly PCT Mortality (%) (Haematobia irritans; timepoint 24 hrs): 80%
- LDA SP H. cont. PCT Mot M [2]: 100%

Compound: CCC(C)CNC(=O)c1ccc(CCOc2ccc(C(F)(F)F)cc2)cn1 (stereo not shown) [Compound 219]
- mortality at 200 ppm ([1]; timepoint 4 hrs): 80%
- mortality at 200 ppm ([1]; timepoint 24 hrs): 90%
- LDA SP H. cont. PCT Mot M [2]: 90%

Compound: CC(C)CNC(=O)c1ccc(CCOc2ccc(Cl)c(OC(F)(F)F)c2)cn1 [Compound 223]
- Contact SP Rhicicep PCT Mortality (%) ([1]; timepoint 4 hrs): 0%
- Contact SP Rhicicep PCT Mortality (%) ([1]; timepoint 24 hrs): 0%
- LDA SP H. cont. PCT Mot M [2]: 91%

Compound: CC(C)CNC(=O)c1ccc(CCOc2ccc(F)c(F)c2)cn1 [Compound 224]
- LDA SP H. cont. PCT Mot M [2]: 98%

Compound: O=C(NCC1CC1)c1ccc(CCOc2cccc(OC(F)(F)F)c2)cn1 [Compound 243]
- mortality at 200 ppm ([1]; timepoint 4 hrs): 100%
- mortality at 200 ppm ([1]; timepoint 24 hrs): 100%
- mortality at 200 ppm (Ctenocephalides felis): 80%
